Some test systems named below: A498; CAKI-1; COLO 205; HCT-116; HCT-15; HL-60; IGROV-1; LOX IMVI; M14; MDA-MB-435; NCI-H460; NCI-H522; NCI/ADR-RES; RXF 393; SF-295; SN12C; SR; T47D; HCC 2998; SF-539.
What all share (test): NCI-60 cell line screen, 48 h

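Protocol summary: plate cells (96-well), add compound at 5 concentrations, incubate 48 h, interpolate endpoints linearly. GI50 = concentration required for 50% inhibition of growth.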 Calls of active or inactive are those of the source. Rule as the data show it: active = GI50 up to about 1.1 µM and inactive = higher.

As to `NNC1=NC(=O)NC(=O)C1`, the GI50 in the assay with A498 is > 100 µM (inactive); in the assay on CAKI-1, > 100 µM (inactive); in the assay on COLO 205, > 100 µM (inactive); with HCT-116, > 100 µM (inactive); in the assay on HCT-15, over 100 µM; with HL-60 it was > 100 µM (inactive). Besides, the GI50 in the assay on IGROV-1, in the assay with LOX IMVI, in the assay on M14, in the assay on MDA-MB-435, with NCI-H460 and in the assay on NCI-H522 was > 100 µM (inactive) throughout. The GI50 in the assay with NCI/ADR-RES, in the assay on RXF 393, in the assay with SF-295, with SN12C, with SR and in the assay on T47D was > 100 µM (inactive) throughout.
Take `O=c1oc2ccc(Cl)cc2cc1C1=CSC2=NCCN12`: the GI50 in the assay with CAKI-1 is 44.5 µM (inactive); in the assay on COLO 205 it was 20.9 µM (inactive); in the assay with HCC 2998, 14 µM (inactive); in the assay with HCT-116, 17.6 µM (inactive); in the assay with HCT-15 it was 18.9 µM; in the assay on HL-60, 21.7 µM (inactive). Besides, the GI50 in the assay with IGROV-1 is 18.5 µM (inactive); in the assay on LOX IMVI it was 18.9 µM (inactive); in the assay with M14 it was 31.6 µM (inactive); in the assay with MDA-MB-435 it was 21.5 µM (inactive); in the assay on NCI-H460, 30.3 µM (inactive); in the assay on NCI-H522 it was 18.7 µM (inactive). Also, the GI50 in the assay with NCI/ADR-RES is 44.4 µM (inactive); in the assay on RXF 393, 21.3 µM (inactive); in the assay with SF-295, 23.3 µM (inactive); in the assay with SF-539, 28.6 µM (inactive); in the assay with SN12C, 17.4 µM (inactive); with SR, 17.1 µM (inactive). Also, the GI50 with T47D is 25.3 µM (inactive).
As for `CCCCS(=O)(=O)CCC(N)P(=O)(O)O` (configuration not stated), the GI50 with CAKI-1 is > 100 µM (inactive); in the assay on COLO 205 it was > 100 µM (inactive); in the assay with HCT-116 it was > 100 µM (inactive); in the assay on HCT-15, over 100 µM; with HL-60, > 100 µM (inactive); in the assay with IGROV-1, > 100 µM (inactive). In addition, the GI50 with LOX IMVI, in the assay on M14, with MDA-MB-435, with NCI-H460, in the assay with NCI-H522 and in the assay with NCI/ADR-RES was > 100 µM (inactive) each time. Besides, the GI50 in the assay with SF-295, with SN12C, in the assay on SR and in the assay with T47D was > 100 µM (inactive) in each case.
Regarding `COC1CCON1C(=O)c1ccccc1` (configuration not stated), the GI50 with CAKI-1 is > 10 µM (inactive); in the assay with COLO 205 it was > 10 µM (inactive); in the assay on HCC 2998, > 10 µM (inactive); with HCT-116, > 10 µM (inactive); in the assay on HCT-15 it was over 10 µM; with HL-60, > 10 µM (inactive). For the same molecule, the GI50 in the assay on IGROV-1, in the assay on LOX IMVI, in the assay with M14, with MDA-MB-435, in the assay on NCI-H460 and with NCI-H522 was > 10 µM (inactive) in each case. Further, the GI50 in the assay on NCI/ADR-RES, in the assay with RXF 393, in the assay on SF-295, in the assay on SF-539, in the assay on SN12C and with SR was > 10 µM (inactive) in each case. Moreover, the GI50 in the assay on T47D is > 10 µM (inactive).
As to `COc1ccc(/C=C2\N=C(N3CCCC(CO)C3)NC2=O)cc1` (configuration not stated), the GI50 in the assay on CAKI-1 was > 100 µM (inactive); with COLO 205, > 100 µM (inactive); in the assay on HCC 2998 it was > 100 µM (inactive); with HCT-116, > 100 µM (inactive); with HCT-15, over 100 µM; with HL-60, > 100 µM (inactive). In addition, the GI50 in the assay on IGROV-1, in the assay on LOX IMVI, in the assay with M14, in the assay on MDA-MB-435, in the assay with NCI-H522 and in the assay on NCI/ADR-RES was > 100 µM (inactive) in each case. In addition, the GI50 with RXF 393, with SF-295, in the assay on SF-539, in the assay with SN12C, in the assay on SR and with T47D was > 100 µM (inactive) throughout.
With `CCO/C=C(\C(=O)OC)S(=O)(=O)c1ccc(C)cc1`, the GI50 in the assay with COLO 205 is > 100 µM (inactive); in the assay on HCC 2998, > 100 µM (inactive); in the assay on HCT-116, > 100 µM (inactive); in the assay with HCT-15, over 100 µM; in the assay with HL-60 it was 0.0596 µM (active); with IGROV-1, > 100 µM (inactive). Besides, the GI50 in the assay on LOX IMVI, in the assay on M14, in the assay with MDA-MB-435, in the assay with NCI-H460, with NCI-H522 and in the assay with NCI/ADR-RES was > 100 µM (inactive) each time. For the same molecule, the GI50 in the assay on RXF 393, in the assay with SF-295, with SF-539, in the assay with SN12C, in the assay on SR and with T47D was > 100 µM (inactive) throughout.
Regarding `COC(=O)C1(C(=O)OC)N=C(C)OC1c1ccoc1` (configuration not stated), the GI50 was > 100 µM (inactive) in the assay on A498; > 100 µM (inactive) in the assay with CAKI-1; > 100 µM (inactive) in the assay on COLO 205; > 100 µM (inactive) in the assay on HCC 2998; > 100 µM (inactive) with HCT-116; over 100 µM with HCT-15. The GI50 in the assay on HL-60, with LOX IMVI, in the assay on M14, with MDA-MB-435, with NCI-H460 and with NCI/ADR-RES was > 100 µM (inactive) each time. The GI50 in the assay on RXF 393, in the assay with SF-295, with SN12C, in the assay with SR and in the assay on T47D was > 100 µM (inactive) each time.
In the case of `COc1ccc(/N=C2\C(=N/c3ccc(OC)cc3)N(S(=O)(=O)c3ccccc3)C(=S)N2c2ccccc2)cc1`, the GI50 was > 100 µM (inactive) in the assay with CAKI-1; > 100 µM (inactive) in the assay on COLO 205; > 100 µM (inactive) in the assay with HCC 2998; over 100 µM with HCT-15; > 100 µM (inactive) in the assay on IGROV-1; > 100 µM (inactive) with M14. Also, the GI50 is > 100 µM (inactive) with MDA-MB-435; > 100 µM (inactive) in the assay on NCI-H460; 86.3 µM (inactive) with NCI-H522; > 100 µM (inactive) with NCI/ADR-RES; > 100 µM (inactive) in the assay with RXF 393; > 100 µM (inactive) with SF-295. Also, the GI50 in the assay with SF-539, in the assay with SN12C, in the assay on SR and in the assay on T47D was > 100 µM (inactive) each time.
For the molecule `COc1cc(C2SCC(=O)N2c2ccc(-c3ccc(-n4c(-c5ccccc5)nc5ccccc5c4=O)cc3)cc2)ccc1O` (configuration not stated), the GI50 in the assay with A498 was > 100 µM (inactive); in the assay on CAKI-1, > 100 µM (inactive); in the assay with COLO 205, > 100 µM (inactive); with HCC 2998 it was 82.2 µM (inactive); with HCT-116, 47.8 µM (inactive); in the assay with HCT-15 it was 25.8 µM. Besides, the GI50 is 65.3 µM (inactive) in the assay on HL-60; > 100 µM (inactive) with IGROV-1; 27.2 µM (inactive) in the assay on LOX IMVI; > 100 µM (inactive) in the assay with M14; 74.1 µM (inactive) in the assay with MDA-MB-435; > 100 µM (inactive) with NCI-H460. Besides, the GI50 in the assay on NCI-H522 is 35.1 µM (inactive); in the assay with NCI/ADR-RES it was 13.6 µM (inactive); in the assay on SF-295, > 100 µM (inactive); with SF-539 it was 54.7 µM (inactive); in the assay with SN12C, > 100 µM (inactive); with SR, > 10 µM (inactive). For the same molecule, in the assay on T47D, the GI50 was 14.4 µM (inactive).
Consider `C=CC1(c2ccc(OC)cc2)OCCCO1`, for which the GI50 in the assay on COLO 205 is > 100 µM (inactive); with HCC 2998 it was > 100 µM (inactive); with HCT-116, > 100 µM (inactive); in the assay on HCT-15 it was over 100 µM; in the assay on HL-60, > 100 µM (inactive); in the assay with IGROV-1, > 100 µM (inactive). Moreover, the GI50 with LOX IMVI, with M14, in the assay with MDA-MB-435, in the assay on NCI-H460, in the assay on NCI-H522 and in the assay with NCI/ADR-RES was > 100 µM (inactive) each time. Besides, the GI50 in the assay with RXF 393, in the assay on SF-295, in the assay on SF-539, in the assay with SN12C, in the assay on SR and in the assay with T47D was > 100 µM (inactive) each time.
In the case of `CC(=O)OCC1OC(OC2CC3C(C)(C)C(=O)CC[C@]3(C)C3CC[C@]45C[C@]4(CCC5[C@@H](C)CC(O)C(O)C(C)(C)O)[C@]23C)C(O)C(O)C1O` (some centres not stated), the GI50 in the assay with CAKI-1 was 17.1 µM (inactive); in the assay on COLO 205 it was 5.85 µM (inactive); in the assay with HCC 2998 it was 10 µM (inactive); with HCT-116 it was 7.1 µM (inactive); in the assay on HCT-15 it was 17.6 µM; in the assay with HL-60 it was 2.25 µM (inactive). Also, the GI50 with IGROV-1 is 11.1 µM (inactive); in the assay on LOX IMVI, 3.72 µM (inactive); in the assay with M14, 10.3 µM (inactive); in the assay on MDA-MB-435, 8.99 µM (inactive); with NCI-H460, 13.6 µM (inactive); in the assay with NCI-H522, 10.6 µM (inactive). In addition, the GI50 was 18.3 µM (inactive) in the assay with NCI/ADR-RES; 10 µM (inactive) in the assay with RXF 393; 14.1 µM (inactive) in the assay with SF-295; 15.3 µM (inactive) in the assay on SF-539; 13.4 µM (inactive) with SN12C; 4.35 µM (inactive) with SR. For the same molecule, the GI50 in the assay with T47D was 5.68 µM (inactive).

Source of the values: ChEMBL document CHEMBL1201862, “PubChem BioAssay data set” (2004).
